Experimental data from patent US20130184273A1, “BICYCLIC PYRIMIDINES” (Bayer Intellectual Property GmbH, priority 2010, published 2013).

Experiments:
[1] = molecular target: T1, His-tagged human recombinant kinase full-length Akt2 (Homo sapiens, UniProt P31751); assay: Akt2 kinase assay (TR-FRET); assay type: biochemical; conditions: 10 μM ATP, 60 min at 22° C., read-out: Akt2, median IC50
T1 construct: His-tagged human recombinant kinase full-length Akt2; His; purchased Invitrogen PV 3975; host or cells: insect cells
T1 sequence (P31751 whole entry): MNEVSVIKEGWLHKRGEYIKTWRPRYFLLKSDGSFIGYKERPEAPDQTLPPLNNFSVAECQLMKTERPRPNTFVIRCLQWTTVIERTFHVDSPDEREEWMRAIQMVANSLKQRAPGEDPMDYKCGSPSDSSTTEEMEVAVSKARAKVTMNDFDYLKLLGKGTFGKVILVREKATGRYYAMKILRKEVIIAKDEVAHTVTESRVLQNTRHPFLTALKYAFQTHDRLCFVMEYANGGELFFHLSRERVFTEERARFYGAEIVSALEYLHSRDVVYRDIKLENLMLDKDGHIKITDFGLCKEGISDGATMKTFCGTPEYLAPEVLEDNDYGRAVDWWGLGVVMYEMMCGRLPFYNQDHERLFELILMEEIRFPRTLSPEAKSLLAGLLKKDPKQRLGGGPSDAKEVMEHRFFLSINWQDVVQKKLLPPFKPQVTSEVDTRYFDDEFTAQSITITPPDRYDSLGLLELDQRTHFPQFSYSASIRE
Procedure, shortened: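 His-tagged full-length human Akt2, insect-cell expressed and PDK1-activated (~0.2 ng/μl final), pre-incubated with compound 15 min at 22 °C, then reacted 60 min with 10 μM ATP and 1 μM biotinylated peptide. Phospho-peptide detected by TR-FRET (665/620 nm ratio), normalised to no-inhibitor and no-enzyme controls.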

[2] = tested on: p-AKT S473 in PC3 human prostate tumours; assay: In vivo xenograft mechanism of action study; set-up: species or system athymic nude mice; conditions: PC3 tumours xenografted onto nude mice, treated once with 50 mg/kg p.o., 5 hours post treatment
Text: To this extent PC3 human prostate tumours were xenografted onto athymic nude mice. PC3 tumour cells were cultivated according to ATCC protocols in recommended media contained 10% FCS and harvested for transplantation in a subconfluent (70%) state. 3×10^6 tumour cells suspended in 50% Matrigel were subcutaneously implantated into the inguinal region of male mice. Tumours were allowed to grow to the predetermined size of 60-80 mm^2. When the tumours were approximately in size, the animals were randomized to treatment and control groups (groups size: 9 animals) and treatment was started. Animals were treated once with 50 mg/kg compound or vehicle per oral administration (p.o.) carried out via a gastric tube. Treatment of each animal was based on individual body weight. At 2, 5 and 24 hours post treatment 3 animals each were sacrificed and the PC3 tumours excised. Tumour samples of approximately 5×5×5 mm were lysed on ice in MSD lysis buffer in the presence of protease and phosphatase inhibitors using Tissue Lyzer (Qiagen, Germany). The levels of p-AKT S473 in extracts from tumour tissue were analysed in an ELISA based assay. This assay is based on the “Akt Duplex” of the MULTI-SPOT® Assay System (Fa. Meso Scale Discovery, Cat #N41100B-1) following manufacturers instructions. Each assay used 20 μg of protein extract and measured total AKT and p-AKT content simultaneously in one well. All measurements where at least done in duplicates and confirmed by independent repetition.
Values for P-AKT are expressed as percentage of P-AKT level compared to total-AKT content of the extracts. Vehicle treated tumours were analyzed to determine the basal level of P-AKT in this model and used as a normalization control to determine the % P-AKT relative to vehicle levels.

[3] = tested on: phospho-AKT at S473 in KPL4 breast tumour cell line; assay: Cellular p-AKT1/2/3-S473 assay; assay type: cell-based; conditions: KPL4 cells, treated with compounds for 2 hours; read-out: pAKT-S743 median IC50
Protocol: The molecular mechanism of action was investigated in a set of experiments to assess the inhibition of the PI3K-AKT-mTOR pathway in responsive cell lines such as KPL4 breast tumour cell line (PIK3CAH1047R, HER20/E and hormone independent). The phospho-substrates of PI3K-AKT-mTOR axis were used as the read-outs to reflect pathway inhibition. Cells were seeded at 60-80% confluency per well in 96-well cell culture plates. After overnight incubation at 37° C. 5% CO2, cells were treated with compounds and vehicle at 37° C. for 2 hours. Thereafter, cells were lysed in 150 μl lysis buffer and the levels of phospho-AKT at T308 and S473 and p-4E-BP1 at T70 sites were determined with the corresponding AlphaScreen® SureFire® assay kits (Perkin Elmer: 4E-BP1 Assay Kit Cat # TRG4E2S10K; Akt 1/2/3 p-Ser 473 #TGRA4S500 and Akt 1/2/3 p-Thr 308 #TGRA3S500 as well as IgG detection Kit #6760617M) as described in the manuals. All measurements where at least done in duplicates and confirmed by independent repetition.
Alternatively pAKT-S473 was measured using the “Akt Duplex” of the MULTI-SPOT® Assay System (Fa. Meso Scale Discovery, Cat#N41100B-1) following manufacturers instructions. Each assay used 20 μg of protein extract and measured total AKT and p-AKT content simultaneously in one well. All measurements where at least done in duplicates and confirmed by independent repetition. Values for P-AKT are expressed as percentage of P-AKT level compared to total-AKT content of the extracts.

Compound | IC50 [1] [nM] | P-AKT % relative to control at 5 hours [2] [%] | IC50 [3] [nM]
Cc1nc2nc(-c3ccc(C4(N)CCC4)cc3)c(-c3ccccc3)cn2n1 [Example 1-0, 1-[4-(2-methyl-6-phenyl-[1,2,4]triazolo[1,5-a]pyrimidin-5-yl)-phenyl]-cyclobutylamine] | 960 | 3.2 | 
Cc1cn2cc(-c3ccccc3)c(-c3ccc(C4(N)CCC4)cc3)nc2n1 [Example 2-1, 1-[4-(2-Methyl-6-phenyl-imidazo[1,2-a]pyrimidin-7-yl)-phenyl]-cyclobutylamine] | 487 | 6.7 | 
CS(=O)(=O)c1ccc(-c2cnc3nc(-c4ccc(C5(N)CCC5)cc4)c(-c4ccccc4)cn23)cc1 [Example 4-0, 1-{4-[3-(4-Methansulfonyl-phenyl)-6-phenyl-imidazo[1,2-a]pyrimidin-7-yl]-phenyl}-cyclobutylamine] | 299 |  | 230
Cn1cc(-c2nc3nc(-c4ccc(C5(N)CCC5)cc4)c(-c4ccccc4)cn3n2)cn1 [Example 5-2, 1-{4-[2-(1-methyl-1H-pyrazol-4-yl)-6-phenyl-[1,2,4]triazolo[1,5-a]pyrimidin-5-yl]-phenyl}-cyclobutylamine] | 340 | 17.9 | 130
NC1(c2ccc(-c3nc4ncc(-c5ccc(F)cc5)n4cc3-c3ccccc3)cc2)CCC1 [Example 6-0, 1-{4-[3-(4-Fluorophenyl)-6-phenyl-imidazo[1,2-a]pyrimidin-7-yl]-phenyl}-cyclobutylamine] | 681 |  | 920
NC(=O)c1cccc(-c2cnc3nc(-c4ccc(C5(N)CCC5)cc4)c(-c4ccccc4)cn23)c1 [Example 6-2, 3-{7-[4-(1-Amino-cyclobutyl)-phenyl]-6-phenyl-imidazo[1,2-a]pyrimidin-3-yl}-benzamide] | 205 |  | 1150
NC1(c2ccc(-c3nc4ncc(-c5cn[nH]c5)n4cc3-c3ccccc3)cc2)CCC1 [Example 6-3, 1-{4-[6-Phenyl-3-(1H-pyrazol-4-yl)-imidazo[1,2-a]pyrimidin-7-yl]-phenyl}-cyclobutylamine] | 165 |  | 240
